Test results: patent US8604001B2, “Use of sulfated oligosaccharides as slimming cosmetic ingredients” (priority 2007, dated 2013)

How the values were obtained:
normal human adipocytes [1] = test: Inhibition of lipogenesis ([2-14C] acetate incorporation into lipids) in suspensions of human adipocytes; assay type: cell-based; settings: 1 mM; for cpm (radioactivity of extracted lipids): 1 h preincubation, 4 h with [2-14C] acetate, control 472253
Protocol: The ex vivo inhibition of lipogenesis was evaluated in suspensions of human adipocytes which were isolated from a sampling taken during an abdominal plasty performed on a person. The adipocytes suspension was incubated for one hour at 37° C. with 3 or 5% of a solution of sulfated oligosaccharides prepared according to example 1 (hydrolysis time: 16 hours), or with a standard study solution (1 mM theophylline or caffeine), on in the absence of these solutions (control). Each assay was done in triplicate. A radioactive marker [2-^14C] acetate was then added to the various assays at a concentration of 2.5 μCi/mL. After 4 hours of incubation at 37° C., the lipids were extracted by a methanol/chloroform/water mixture and then dehydrated. The radioactivity, expressed in counts per minute (cpm), is then quantified through liquid scintigraphy (LKB 1210 Rackbeta). The statistical analysis was performed according to the Dunnett's multiple comparison test.

normal human adipocytes [2] = test: Stimulation of lipolysis (Non-Esterified Fatty Acids released) in suspensions of human adipocytes; assay type: cell-based; settings: 1 mM; for NEFA: 2 hours at 37° C., control 96
Protocol: The lipolysis stimulation activity was evaluated in suspensions of human adipocytes isolated from a sample taken during an abdominal plasty performed on a person. The adipocytes suspension was incubated, for 2 hours at 37° C. with 3 or 5% of a solution of sulfated oligosaccharides prepared according to example 1 (16 hours of, hydrolysis time) in percentage of total weight of the culture, or with standard study solutions (1 mM theophylline or caffeine) or in the absence of solutions (control). Each assay was performed 6 times. At the end of the incubation period, the Non-Esterified Fatty Acids (NEFA) which were; present in the incubation mediums were measured with commercially available dosage kits (OXOID 46 551).

[3] = test system: thighs of healthy volunteers; test: Slimming effect of hydro-alcohol gels: thigh circumference measured in centimeters over 8 weeks; settings: for change of thigh circumference versus T0: hydro-alcohol gel applied twice a day, 25 volunteers

Cn1c(=O)c2c(ncn2C)n(C)c1=O [Caffeine, caffeine]
% Control (lipogenesis) (normal human adipocytes [1]): 4% | cpm (radioactivity of extracted lipids) (normal human adipocytes [1]): 20741 cpm | % Control (lipolysis, NEFA) (normal human adipocytes [2]): 547% | NEFA (normal human adipocytes [2]): 525 µM | change of thigh circumference versus T0 ([3]; 14 days): 0 cm | change of thigh circumference versus T0 ([3]; 28 days): −0.1 cm | average decrease of the circumference of the thigh ([3]; 56 days, gel applied twice a day): 0.3 cm | change of thigh circumference versus T0 ([3]; 56 days): −0.3 cm | slimming effect (in words) ([3]; after 14 treatment days): no slimming effect

Cn1c(=O)c2[nH]cnc2n(C)c1=O [Theophylline, theophylline]
% Control (lipogenesis) (normal human adipocytes [1]): 6% | cpm (radioactivity of extracted lipids) (normal human adipocytes [1]): 27225 cpm | % Control (lipolysis, NEFA) (normal human adipocytes [2]): 560% | NEFA (normal human adipocytes [2]): 537 µM
